Measured values taken from paper PMC9969250 (2023).

Legend:
[1] = system: MN4 (DNA, aptamer) GGCGACAAGGAAAATCCTTCAACGAAGTGGGTCGCC; assay: quinine fluorescence quenching; settings: PBS, 5 mM MgCl2; pH 7.4, 20 °C; 0.1 μM quinine; three-parameter fit; per site
[2] = system: A (boxcar A) (DNA, aptamer) CGTCTAATCTAATCAGGCGACAAGGAAAATCCTTCAACGAAGTGGGTCGCCCTAACTCTCTATCCG; assay: quinine fluorescence quenching; settings: PBS, 5 mM MgCl2; pH 7.4, 20 °C; 0.1 μM quinine; three-parameter fit; per site

KD [1]: 280 ± 60 nM
KD [2]: 380 ± 130 nM
Compound: C=C[C@H]1CN2CC[C@H]1C[C@H]2[C@H](O)c1ccnc2ccc(OC)cc12
